According to US7786141B2 (Vertex Pharmaceuticals Incorporated, priority 2004, dated 2010):

What was measured:
M1 muscarinic receptor = biological target: T1, M1 muscarinic receptor (Homo sapiens, UniProt P11229); experiment: Functional mobilization of intracellular calcium (FLIPR) in M1-CHO cells; type: cell-based; settings: Table 4; for Emax: 100% efficacy is the maximum response obtained with the Carbachol control; for M1 Activity: modulating M1 receptor
T1 construct: expressed in transfected cells; host or cells: CHO (M1-CHO)
T1 sequence (P11229 1-460): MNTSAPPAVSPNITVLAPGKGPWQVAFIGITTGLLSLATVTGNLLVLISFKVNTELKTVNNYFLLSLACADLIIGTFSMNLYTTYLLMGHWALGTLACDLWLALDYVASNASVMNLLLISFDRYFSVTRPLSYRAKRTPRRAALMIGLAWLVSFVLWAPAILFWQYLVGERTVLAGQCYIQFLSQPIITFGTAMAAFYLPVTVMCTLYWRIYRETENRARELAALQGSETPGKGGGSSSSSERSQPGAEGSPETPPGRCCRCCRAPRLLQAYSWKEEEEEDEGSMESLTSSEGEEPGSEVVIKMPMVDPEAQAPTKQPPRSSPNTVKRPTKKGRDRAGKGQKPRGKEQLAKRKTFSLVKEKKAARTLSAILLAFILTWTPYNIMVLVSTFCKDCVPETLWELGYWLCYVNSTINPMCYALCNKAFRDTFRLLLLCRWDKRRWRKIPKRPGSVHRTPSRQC
Summary of the method: (§1)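 FLIPR Ca2+ read, ex 488/em 540 nm, 60 s. Recombinant CHO lines (M1 or M4), dye-loaded Fluo-3 AM 60-90 min at 37° C, probenecid 1 mM, pH 7.4. Agonist: compound alone; inhibition: 15 min compound pre-incubation, then carbachol at EC80 for that subtype.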

M4 muscarinic receptor = biological target: T2, M4 muscarinic receptor (Homo sapiens, UniProt P08173); experiment: Functional mobilization of intracellular calcium (FLIPR) in M4-CHO cells; type: cell-based; settings: Table 4; for Emax: 100% efficacy is the maximum response obtained with the Carbachol control; for M4 Activity: modulating M4 receptor
T2 construct: expressed in transfected cells; host or cells: CHO (M4-CHO)
T2 sequence (P08173 1-479): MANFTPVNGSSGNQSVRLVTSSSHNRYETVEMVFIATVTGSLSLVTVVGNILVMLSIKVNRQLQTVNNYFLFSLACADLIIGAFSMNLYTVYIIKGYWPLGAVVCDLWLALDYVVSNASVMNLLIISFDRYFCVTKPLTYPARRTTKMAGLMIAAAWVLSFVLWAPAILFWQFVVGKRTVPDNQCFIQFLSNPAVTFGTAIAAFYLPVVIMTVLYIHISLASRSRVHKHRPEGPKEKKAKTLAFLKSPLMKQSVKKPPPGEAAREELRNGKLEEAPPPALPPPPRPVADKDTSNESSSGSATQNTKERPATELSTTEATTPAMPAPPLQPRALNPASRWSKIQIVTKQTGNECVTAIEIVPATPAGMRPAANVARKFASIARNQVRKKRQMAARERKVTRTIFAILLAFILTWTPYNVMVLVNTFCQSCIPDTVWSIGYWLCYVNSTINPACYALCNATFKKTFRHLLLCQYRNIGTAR
Summary of the method: as §1

SMILES	Emax (M1 muscarinic receptor) [%]	M1 Activity (M1 muscarinic receptor)	Emax (M4 muscarinic receptor) [%]	M4 Activity (M4 muscarinic receptor)
CC(=O)N[C@H]1CC2(CCN(C3CCN(C)CC3C)CC2)c2ccccc21 (stereo partly shown) [compound 436]	< 25	x (activity was measured to be greater than 5.0 μM)	< 25	x (activity was measured to be greater than 5.0 μM)
CC(=O)N[C@@H]1CC2(CCN(C3CCOCC3)CC2)c2ccccc21 [compound 437]	< 25	x (activity was measured to be greater than 5.0 μM)	< 25	x (activity was measured to be greater than 5.0 μM)
CN(C)C(=O)N[C@H]1CC2(CCN(C[C@@H]3C[C@H]4C=C[C@H]3C4)CC2)c2ccccc21 [compound 438]	25 to 100	xxx (activity was measured to be less than 2.0 μM)	< 25	xxx (activity was measured to be less than 2.0 μM)
CC(=O)N1CC2(CCN(C3CC4CCC(C3)N4C(=O)OCC3CC3)CC2)c2ccccc21 (stereo not shown) [compound 439]	25 to 100	xxx (activity was measured to be less than 2.0 μM)	25 to 100	xxx (activity was measured to be less than 2.0 μM)
CC(=O)N1CC2(CCN(C3CCN(C(=O)OC(C)C)CC3)CC2)c2ccccc21 [compound 440]	25 to 100	xxx (activity was measured to be less than 2.0 μM)	25 to 100	xxx (activity was measured to be less than 2.0 μM)
CC(=O)N1CC2(CCN(C3CCN(C(C)C)CC3)CC2)c2cc(F)ccc21 [compound 441]	< 25	x (activity was measured to be greater than 5.0 μM)	< 25	x (activity was measured to be greater than 5.0 μM)
COc1cc2c(cc1OC)C1(CCN(C3CCCCCC3)CC1)C[C@@H]2NC(C)=O [compound 442]	< 25	x (activity was measured to be greater than 5.0 μM)	< 25	x (activity was measured to be greater than 5.0 μM)
C#CCOC(=O)N1CC[C@H](CN2CCC3(CC2)CN(C(=O)N(C)C)c2ccc(F)cc23)C1 [compound 443]	> 100	xxx (activity was measured to be less than 2.0 μM)	> 100	xxx (activity was measured to be less than 2.0 μM)
CCOC(=O)N1C2CCC1CC(N1CCC3(CC1)CN(C(C)=O)c1c(C)cccc13)C2 (stereo not shown) [compound 444]	25 to 100	xx (activity was measured to be between 2.0 μM and 5.0 μM)	25 to 100	xx (activity was measured to be between 2.0 μM and 5.0 μM)
CC#CCOC(=O)N1CC[C@H](CN2CCC3(CC2)CN(C(C)=O)c2cccc(C)c23)C1 [compound 445]	25 to 100	xxx (activity was measured to be less than 2.0 μM)	25 to 100	xxx (activity was measured to be less than 2.0 μM)
COc1ccccc1C(=O)N1CCC(N2CCC3(CC2)CN(C(=O)N(C)C)c2ccc(F)cc23)CC1 [compound 446]	25 to 100	x (activity was measured to be greater than 5.0 μM)	< 25	x (activity was measured to be greater than 5.0 μM)
CC(=O)N[C@H]1CCC2(CCN(C[C@@H]3C[C@H]4C=C[C@H]3C4)CC2)c2ccccc21 [compound 447]	25 to 100	xxx (activity was measured to be less than 2.0 μM)	25 to 100	xxx (activity was measured to be less than 2.0 μM)
O=C(N[C@H]1CC2(CCN(CC3CCCCC3)CC2)c2ccccc21)C1CCCC1 [compound 448]	< 25	x (activity was measured to be greater than 5.0 μM)	< 25	xxx (activity was measured to be less than 2.0 μM)
C1=CC2CC1CC2CN1CCC2(CCCc3ccccc32)CC1 (stereo not shown) [compound 449]	25 to 100	xx (activity was measured to be between 2.0 μM and 5.0 μM)	25 to 100	xxx (activity was measured to be less than 2.0 μM)
CCOC(=O)N1CCC(N2CCC3(CC2)CN(C(C)=O)c2cccc(C)c23)CC1 [compound 450]	25 to 100	xxx (activity was measured to be less than 2.0 μM)	< 25	x (activity was measured to be greater than 5.0 μM)
Cc1nsc(N2CC3(CCN(C4CC5CCC(C4)N5c4nc(C)ns4)CC3)c3ccccc32)n1 (stereo not shown) [compound 451]	25 to 100	xxx (activity was measured to be less than 2.0 μM)	25 to 100	xxx (activity was measured to be less than 2.0 μM)
CC(=O)N[C@H]1CCC2(CCN(CCCC3CCCCC3)CC2)c2ccccc21 [compound 452]	25 to 100	xxx (activity was measured to be less than 2.0 μM)	< 25	x (activity was measured to be greater than 5.0 μM)
C#CCOC(=O)N1CCC(N2CCC3(CC2)CN(C(C)=O)c2cccc(C)c23)CC1 [compound 453]	25 to 100	xxx (activity was measured to be less than 2.0 μM)	< 25	x (activity was measured to be greater than 5.0 μM)
CCC(=O)CCN1CCC(N2CCC3(CC2)CN(C(C)=O)c2ccc(F)cc23)CC1 [compound 454]	< 25	x (activity was measured to be greater than 5.0 μM)	< 25	x (activity was measured to be greater than 5.0 μM)
CCC#CCOC(=O)N1CC[C@H](CN2CCC3(CC2)CN(C(C)=O)c2cccc(C)c23)C1 [compound 455]	25 to 100	xxx (activity was measured to be less than 2.0 μM)	25 to 100	xxx (activity was measured to be less than 2.0 μM)
CCCC#CCOC(=O)N1CCC(N2CCC3(CC2)CN(C(=O)N(C)C)c2ccc(F)cc23)CC1 [compound 456]	25 to 100	xxx (activity was measured to be less than 2.0 μM)	25 to 100	xxx (activity was measured to be less than 2.0 μM)
CN(C)C(=O)N1CC2(CCN(C3CCN(c4ccncc4)CC3)CC2)c2cc(F)ccc21 [compound 458]	< 25	x (activity was measured to be greater than 5.0 μM)	< 25	x (activity was measured to be greater than 5.0 μM)
COCCOC(=O)N1CC[C@@H](CN2CCC3(CC2)CN(C(C)=O)c2ccccc23)C1 [compound 459]	25 to 100	x (activity was measured to be greater than 5.0 μM)	< 25	xx (activity was measured to be between 2.0 μM and 5.0 μM)
COCCN1CC2(CCN(C3CCN(C(=O)OCCF)CC3)CC2)c2cc(F)ccc21 [compound 460]	25 to 100	xxx (activity was measured to be less than 2.0 μM)	25 to 100	xxx (activity was measured to be less than 2.0 μM)
CC(=O)N1CC2(CCN(C3CCN(c4cncc(-c5ccccc5F)n4)CC3)CC2)c2ccccc21 [compound 461]	25 to 100	xx (activity was measured to be between 2.0 μM and 5.0 μM)	< 25	x (activity was measured to be greater than 5.0 μM)
CC(=O)CN1CC2(CCN(C3CC4CCC(C4)C3)CC2)c2cc(F)ccc21 (stereo not shown) [compound 462]	25 to 100	xxx (activity was measured to be less than 2.0 μM)	25 to 100	xxx (activity was measured to be less than 2.0 μM)
C[C@@H](O)CC(=O)N1CCC(N2CCC3(CC2)CN(C(=O)N(C)C)c2ccc(F)cc23)CC1 [compound 463]	25 to 100	x (activity was measured to be greater than 5.0 μM)	< 25	x (activity was measured to be greater than 5.0 μM)
CCC(=O)N1CCC(N2CCC3(CC2)CN(C(=O)N(C)C)c2ccc(F)cc23)CC1 [compound 464]	25 to 100	xx (activity was measured to be between 2.0 μM and 5.0 μM)	25 to 100	xx (activity was measured to be between 2.0 μM and 5.0 μM)
